Measured values from a compilation of properties of binary mixtures (doi:10.1016/j.molliq.2014.05.027).

Test: xn = mol fraction of the nth substance listed
Settings: 101 kPa

Compound	viscosity (293.15 K, x1 = 1) [mPa·s]	viscosity (298.15 K, x1 = 1) [mPa·s]	viscosity (303.15 K, x1 = 1) [mPa·s]	viscosity (313.15 K, x1 = 1) [mPa·s]	viscosity (293.15 K, x2 = 0) [mPa·s]	electrical conductivity (298.15 K, x1 = 0.002) [S/m]	electrical conductivity (298.15 K, x1 = 0.0071) [S/m]	electrical conductivity (298.15 K, x1 = 0.01) [S/m]	electrical conductivity (298.15 K, x2 = 0) [S/m]	viscosity (298.15 K, x2 = 0) [mPa·s]	electrical conductivity (298.15 K, x2 = 0.1092) [S/m]	electrical conductivity (298.15 K, x2 = 0.2563) [S/m]	electrical conductivity (298.15 K, x2 = 0.5026) [S/m]	electrical conductivity (298.15 K, x2 = 0.6515) [S/m]	electrical conductivity (298.15 K, x2 = 0.8065) [S/m]	electrical conductivity (298.15 K, x2 = 0.8514) [S/m]	electrical conductivity (298.15 K, x2 = 0.9001) [S/m]	electrical conductivity (298.15 K, x2 = 0.9252) [S/m]	viscosity (303.15 K, x2 = 0.7993) [mPa·s]	viscosity (308.15 K, x2 = 0) [mPa·s]
O + CC(=O)[O-].Cn1cc[nH+]c1	1.002	0.89	0.797	0.651	–	–	–	–	–	–	–	–	–	–	–	–	–	–	–	–
CC(=O)[O-].Cn1cc[nH+]c1 + O	–	–	–	–	8.2	0.522	1.51	1.92	0.371	6.93	0.433	0.553	0.858	1.21	2	2.52	3.27	3.73	5.76	5.07
